From paper PMC12316308, “Interactions of substrates and phosphinyl containing inhibitors with bacterial and human zinc proteases” (PLOS One, 2025)
Where “and” joins values, the source holds several entries; their conditions need not be identical. Equal values may be shown once.

Legend:
MMP-12 = tested on: MMP-12; parameters: method as in PMID 27996256, PMID 23343195; conditions: cited from earlier work
[1] = target: T1, human MT1-MMP/MMP-14 (catalytic domain) (Homo sapiens, UniProt P50281); assay: Enzyme inhibition kinetics, fluorogenic substrate ES001; type: biochemical; conditions: inhibitor 10 μM
T1 construct: human MT1-MMP/MMP-14 (catalytic domain); purchased Calbiochem (San Diego, CA, USA)

Row | SMILES | pH dependence of Ki (MMP-12) | vi/v0 (relative enzyme activity with inhibitor), single determinations ([1]; preincubation 15 min) | vi/v0 (relative enzyme activity with inhibitor), single determinations ([1]; preincubation 30 min)
1 | NC(=O)C(CCC(=O)O)NC(=O)C(CCC(=O)O)NC(=O)C(Cc1cc(-c2ccc(-c3cccc(Cl)c3)cc2)no1)CP(=O)(O)c1ccc(Br)cc1 (stereo not drawn) [H-1] | increasing approximately ten times for each unit increase in buffer pH | – | –
2 | NC(=O)C(Cc1c[nH]c2ccccc12)NC(=O)C(CCCc1ccccc1)CP(=O)(O)C(Cc1ccccc1)NC(=O)OCc1ccccc1 (stereo not drawn) [H-2] | – | 0.1646 and 0.1715 and 0.1368 and 0.1654 | 0.1465 and 0.1449 and 0.1477 and 0.1505
